Experimental data published in US8993606B2, “Oral formulations for treating metal overload” (FerroKin BioSciences, Inc., priority 2011, dated 2015).

Experiments:
healthy subjects [1] = assay: Safety: single-dose study in healthy subjects (3, 6, 10, 16 mg/kg); format: in vivo; details: for Arthralgia / Colitis / Flatulence / Gastroenteritis / Headache / Somnolence / Total Number (%) of Subjects Experiencing Adverse Events / Total Number of Subjects Experiencing NO Adverse Events / Upper respiratory tract infection: 3 subjects
Excerpt: Example 8 was a double-blind, placebo-controlled single dose-escalating study in healthy subjects. Men between the ages of 18-45 years qualified to participate if they were able to voluntarily give consent and had no clinically significant abnormal findings at the screening evaluation. Specifically, subjects had blood pressure in the normal range, ECG and clinical laboratory values within normal limits, tested negative for drugs of abuse and had not recently donated blood. Subjects were also HIV, Hepatitis B, and Hepatitis C negative and agreed to use an approved method of contraception during the study.
The objectives of this study were to assess the safety, tolerability, and pharmacokinetics of ascending single doses of Compound 1 compared to placebo. Additionally, dose proportionality and pharmacodynamics of Compound 1 were assessed. Four doses of Compound 1 (3, 6, 10, and 16 mg/kg), in capsule form, were evaluated in this study. Following screening, subjects in a given cohort were randomly assigned to receive either Compound 1 or placebo. In the first cohort, 3 subjects received […] and 2 received placebo; in each of the subsequent remaining 3 cohorts, 3 subjects received the next higher dose of Compound 1 and 1 received placebo. Subjects were dosed and then confined to the clinical research unit for 24 hours to conduct safety and pharmacokinetic assessments. Subjects were released from the clinic on Day 2 and returned daily for follow-up visits for 5 days post-dosing.
All 17 enrolled subjects completed the study: Twelve received a single dose of Compound 1 (3, 6, 10, and 16 mg/kg) and 5 received placebo. […] Treatment-emergent adverse events (TEAEs) were reported for 5 of the 12 subjects receiving Compound 1 (Table 28 and 29). A total of 9 AEs were reported; 8 treatment-emergent, and 1 pre-dose, all in subjects receiving Compound 1. […] Additionally, there were no clear differences in safety as evaluated by clinical laboratory assessments, vital sign measurements, and ECG parameters between subjects who had received Compound 1 compared with those who received placebo, and no apparent dose-related trends in these safety assessments in subjects who received Compound 1.

[2] = Preliminary analysis of pharmacokinetic results from the clinical studies as a whole; format: in vivo, human
Excerpt: The results were similar across the common doses in the 4 studies. […] See also FIG. 10.

healthy subjects [3] = assay: Safety: single-dose study in healthy subjects (30-75 mg/kg, 20 mg/kg bid); format: in vivo
Procedure: This was a single-center, double-blind, placebo-controlled study of ascending single oral doses of Compound 1. Six cohorts of 8 subjects (30 and 50 mg/kg single doses) or 5 subjects (40, 60, and 75 mg/kg single doses and 20 mg/kg×2 doses at 12 hour intervals) were dosed sequentially with Compound 1. Within each cohort, 7 or 4 subjects received Compound 1 and 1 subject received placebo. Subjects in the 20 mg/kg×2 doses cohort received a dose the evening prior to the study day (Day −1), approximately 12 hours prior to dosing on Day 1. The dose administered on Day −1 followed a 2-hour fast and that on Day 1 a 10-hour fast.
Thirty-one subjects were enrolled and completed the study: 26 received a single oral dose of Compound 1 [30 (7 subjects), 40 (4 subjects), 50 (7 subjects), 60 (4 subjects) and 75 mg/kg (4 subjects)], 4 subjects previously administered a single dose at 30 and 40 mg/kg received 20 mg/kg bid and 5 received placebo. […] Treatment-emergent adverse events were reported for 13 of the 26 subjects receiving Compound 1 (50%). TEAEs in the active groups included catheter site erythema or hematoma (3 subjects), fatigue (1 subject), headache (2 subjects), dysgueusia (1 subject), presyncope (1 subject), abdominal pain (1 subject), nausea (1 subject), back pain (1 subject), muscle spasm (1 subject), decreased appetite (1 subject), chromaturia (1 subject).

[4] = Aqueous solubility of salts; format: physicochemical; details: water; read-out: solubility in water
Excerpt: Typically, oral formulations described herein facilitate solubilizing an active ingredient (e.g., a desazadesferrithiocin analog, salt or polymorph) at a desired amount or rate suitable for the treatment of metal overload. As used herein, the term “solubility” is generally intended to be synonymous with the term “aqueous solubility,” and refers to the ability, and the degree of the ability, of a compound to dissolve in water or an aqueous solvent or buffer, as might be found under physiological conditions. Aqueous solubility is, in and of itself, a useful quantitative measure, but it has additional utility as a correlate and predictor, with some limitations which will be clear to those of skill in the art, of oral bioavailability. Typically, a soluble compound is generally desirable, and the more soluble, the better. In liquid formulations, solubility is typically reported in mg/mL, but other measures, such as g/g, may be used. Solubilities typically deemed acceptable may range from 1 mg/mL into the hundreds or thousands of mg/mL.
Solubility may be measured under varying conditions. For example, it may be measured under conditions similar to those found in the body, such as at gastric pH or at physiologic or near-physiologic pH. “Gastric pH” as used herein means about pH 1. […]

[5] = single oral dose 30-75 mg/kg, 20 mg/kg bid

Structure (SMILES): COCCOCCOCCOc1cccc(C2=N[C@@](C)(C(=O)O)CS2)c1O [Compound 1, (S)-4,5-Dihydro-2-[2-hydroxy-3-(3,6,9-trioxadecyloxy)phenyl]-4-methyl-4-thiazolecarboxylate magnesium hydroxide]
- Arthralgia (healthy subjects [1]; 3 mg/kg): 0 Number (%) Subjects
- Colitis (healthy subjects [1]; 3 mg/kg): 0 Number (%) Subjects
- Flatulence (healthy subjects [1]; 3 mg/kg): 0 Number (%) Subjects
- Gastroenteritis (healthy subjects [1]; 3 mg/kg): 1 (33%) Number (%) Subjects
- Headache (healthy subjects [1]; 3 mg/kg): 0 Number (%) Subjects
- Somnolence (healthy subjects [1]; 3 mg/kg): 1 (33%) Number (%) Subjects
- Total Number (%) of Subjects Experiencing Adverse Events (healthy subjects [1]; 3 mg/kg): 1 (33%) Number (%)
- Total Number of Subjects Experiencing NO Adverse Events (healthy subjects [1]; 3 mg/kg): 2 (67%)
- Upper respiratory tract infection (healthy subjects [1]; 3 mg/kg): 0 Number (%) Subjects
- Arthralgia (healthy subjects [1]; 6 mg/kg): 1 (33%) Number (%) Subjects
- Colitis (healthy subjects [1]; 6 mg/kg): 0 Number (%) Subjects
- Flatulence (healthy subjects [1]; 6 mg/kg): 0 Number (%) Subjects
- Gastroenteritis (healthy subjects [1]; 6 mg/kg): 0 Number (%) Subjects
- Headache (healthy subjects [1]; 6 mg/kg): 0 Number (%) Subjects
- Somnolence (healthy subjects [1]; 6 mg/kg): 0 Number (%) Subjects
- Total Number (%) of Subjects Experiencing Adverse Events (healthy subjects [1]; 6 mg/kg): 1 (33%) Number (%)
- Total Number of Subjects Experiencing NO Adverse Events (healthy subjects [1]; 6 mg/kg): 2 (67%)
- Upper respiratory tract infection (healthy subjects [1]; 6 mg/kg): 1 (33%) Number (%) Subjects
- Colitis (healthy subjects [1]; 10 mg/kg): 0 Number (%) Subjects
- Flatulence (healthy subjects [1]; 10 mg/kg): 0 Number (%) Subjects
- Gastroenteritis (healthy subjects [1]; 10 mg/kg): 0 Number (%) Subjects
- Headache (healthy subjects [1]; 10 mg/kg): 0 Number (%) Subjects
- Somnolence (healthy subjects [1]; 10 mg/kg): 0 Number (%) Subjects
- Total Number (%) of Subjects Experiencing Adverse Events (healthy subjects [1]; 10 mg/kg): 0 Number (%)
- Total Number of Subjects Experiencing NO Adverse Events (healthy subjects [1]; 10 mg/kg): 3 (100%)
- Upper respiratory tract infection (healthy subjects [1]; 10 mg/kg): 0 Number (%) Subjects
- Arthralgia (healthy subjects [1]; 16 mg/kg): 0 Number (%) Subjects
- Colitis (healthy subjects [1]; 16 mg/kg): 1 (33%) Number (%) Subjects
- Flatulence (healthy subjects [1]; 16 mg/kg): 1 (33%) Number (%) Subjects
- Headache (healthy subjects [1]; 16 mg/kg): 1 (33%) Number (%) Subjects
- Somnolence (healthy subjects [1]; 16 mg/kg): 0 Number (%) Subjects
- Total Number (%) of Subjects Experiencing Adverse Events (healthy subjects [1]; 16 mg/kg): 3 (100%) Number (%)
- Total Number of Subjects Experiencing NO Adverse Events (healthy subjects [1]; 16 mg/kg): 0
- Upper respiratory tract infection (healthy subjects [1]; 16 mg/kg): 0 Number (%) Subjects
- tolerability (healthy subjects [1]; single dose 3, 6, 10, 16 mg/kg): well tolerated
- deaths, SAEs, withdrawals due to AEs (healthy subjects [1]; single dose 3-16 mg/kg): no deaths, no serious adverse events (SAEs), and no withdrawals due to AEs
- subjects with treatment-emergent adverse events (TEAEs) (healthy subjects [1]; single dose 3-16 mg/kg): 5 of the 12
- total AEs reported (healthy subjects [1]; single dose 3-16 mg/kg): 9 AEs
- treatment-emergent AEs (healthy subjects [1]; single dose 3-16 mg/kg): 8
- dose proportionality ([2]; dosing range of 3 to 50 mg/kg, preliminary analysis): dose-proportionality in Cmax and AUC
- Tmax ([2]; human, plasma, oral, in each study): ~1 h
- subjects with treatment-emergent adverse events (healthy subjects [3]; 13 of the 26 subjects): 50%
- TEAE abdominal pain (healthy subjects [3]; active groups, 26 subjects): 1 subject
- TEAE back pain (healthy subjects [3]; active groups, 26 subjects): 1 subject
- TEAE catheter site erythema or hematoma (healthy subjects [3]; active groups, 26 subjects): 3 subjects
- TEAE chromaturia (healthy subjects [3]; active groups, 26 subjects): 1 subject
- TEAE decreased appetite (healthy subjects [3]; active groups, 26 subjects): 1 subject
- TEAE dysgueusia (healthy subjects [3]; active groups, 26 subjects): 1 subject
- TEAE fatigue (healthy subjects [3]; active groups, 26 subjects): 1 subject
- TEAE headache (healthy subjects [3]; active groups, 26 subjects): 2 subjects
- TEAE muscle spasm (healthy subjects [3]; active groups, 26 subjects): 1 subject
- TEAE nausea (healthy subjects [3]; active groups, 26 subjects): 1 subject
- TEAE presyncope (healthy subjects [3]; active groups, 26 subjects): 1 subject
- intensity of all AEs (healthy subjects [3]; after treatment): mild intensity
- serious side effects in humans (healthy subjects [3]; daily dose higher than 40 mg/kg of body weight): no serious side effects were observed
- deaths, SAEs, withdrawals due to AEs (healthy subjects [3]; [5]): no deaths, SAEs), or withdrawals due to AEs
- tolerability (healthy subjects [3]; [5]): well tolerated
- solubility [4]: ≥ 48 mg/mL
